System: TFEB
Assay: TFEB nuclear translocation assay, HeLa wt cells
Assay type: cell-based
Conditions: 2 hrs compound treatment, Table 1 does not say HeLa wt or TRPML1 KO
Summary of the method: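 Cells are plated overnight, exposed to compounds for 2 hrs at 37° C, fixed with 4% PFA, blocked, and stained overnight at 4° C with rabbit anti-TFEB. After Alexa 488 secondary and Hoechst, nuclei and a perinuclear ring are segmented to give a nuclear:ring intensity ratio and AC50.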

Compound: C[C@@H]1C[C@@]2(CCN1c1ccccc1NS(=O)(=O)c1ccc(S(=O)(=O)N(C)C)cc1)COC(C)(C)C2 (racemic) [Compound A-799, N1,N1-dimethyl-N4-(2-((5R,7R)-3,3,7-trimethyl-2-oxa-8-azaspiro[4.5]decan-8-yl)phenyl)benzene-1,4-disulfonamide]
- AC50 (Homo sapiens, HeLa, 2 h): ≤ 2000 nM

Compound: CN(C)S(=O)(=O)c1ccc(S(=O)(=O)Nc2cc(Cl)nnc2N2CCC(c3ccc(Cl)cc3F)CC2)cc1 [Compound A-129, N4-{6-chloro-3-[4-(4-chloro-2-fluorophenyl)piperidin-1-yl]pyridazin-4-yl}-N1,N1-dimethylbenzene-1,4-disulfonamide]
- AC50 (Homo sapiens, HeLa, 2 h): ≥ 10000 nM

Compound: CN(C)S(=O)(=O)c1ccc(S(=O)(=O)Nc2ccccc2N2CCN(C3CCCC3)CC2)cc1 [Compound A-453, N4-[2-(4-cyclopentylpiperazin-1-yl)phenyl]-N1,N1-dimethylbenzene-1,4-disulfonamide]
- AC50 (Homo sapiens, HeLa, 2 h): 2010 to 8000 nM

Compound: CN(C)S(=O)(=O)c1ccc(S(=O)(=O)Nc2cccc(C#CC(F)F)c2N2CCCCC2)cc1 [Compound A-921, N4-[3-(3,3-difluoroprop-1-yn-1-yl)-2-(piperidin-1-yl)phenyl]-N1,N1-dimethylbenzene-1,4-disulfonamide]
- AC50 (Homo sapiens, HeLa, 2 h): ≤ 2000 nM

Compound: CN(C)S(=O)(=O)c1ccc(S(=O)(=O)Nc2ccccc2N2CCC(c3cnn(C)c3)CC2)cc1 [Compound A-60, N1,N1-dimethyl-N4-{2-[4-(1-methyl-1H-pyrazol-4-yl)piperidin-1-yl]phenyl}benzene-1,4-disulfonamide]
- AC50 (Homo sapiens, HeLa, 2 h): 2010 to 8000 nM

Compound: CC(c1cccc(F)c1N1CCC(CN2C3CCC2COC3)CC1)S(=O)(=O)c1ccc2c(c1)CC(C)(C)O2 (stereo not drawn) [Compound A-886, 8-{[1-(2-{1-[(2,2-dimethyl-2,3-dihydro-1-benzofuran-5-yl)sulfonyl]ethyl}-6-fluorophenyl)piperidin-4-yl]methyl}-3-oxa-8-azabicyclo[3.2.1]octane]
- AC50 (Homo sapiens, HeLa, 2 h): ≤ 2000 nM

Compound: Cc1ccc(S(=O)(=O)Nc2ccccc2-n2ccc(-c3ccc(Cl)cc3F)c2)cc1 [Compound A-93, N-{2-[3-(4-chloro-2-fluorophenyl)-1H-pyrrol-1-yl]phenyl}-4-methylbenzene-1-sulfonamide]
- AC50 (Homo sapiens, HeLa, 2 h): ≥ 10000 nM

Compound: C[C@H]1CN(CC2CCN(c3c(F)cccc3NS(=O)(=O)c3ccc(S(=O)(=O)N(C)C)cc3)CC2)[C@@H](C)CO1 [Compound A-862, N4-[2-(4-{[(2S,5S)-2,5-dimethylmorpholin-4-yl]methyl}piperidin-1-yl)-3-fluorophenyl]-N1,N1-dimethylbenzene-1,4-disulfonamide]
- AC50 (Homo sapiens, HeLa, 2 h): ≤ 2000 nM

Compound: CN(C)S(=O)(=O)c1ccc(S(=O)(=O)Nc2nn(C)cc2C2CCN(c3ccccc3F)CC2)cc1 [Compound A-40, N1-(4-(1-(2-fluorophenyl)piperidin-4-yl)-1-methyl-1H-pyrazol-3-yl)-N4,N4-dimethylbenzene-1,4-disulfonamide]
- AC50 (Homo sapiens, HeLa, 2 h): 2010 to 8000 nM

Compound: Cc1ccc(S(=O)(=O)Nc2ccccc2N2CCC(c3ccc(Cl)cn3)CC2)cc1 [Compound A-103, N-{2-[4-(5-chloropyridin-2-yl)piperidin-1-yl]phenyl}-4-methylbenzene-1-sulfonamide]
- AC50 (Homo sapiens, HeLa, 2 h): ≤ 2000 nM

Compound: O=S(=O)(Nc1ccccc1N1CCC(c2ccc(F)cc2F)CC1)c1ccc(C(F)F)nc1 [Compound A-136, 6-(difluoromethyl)-N-{2-[4-(2,4-difluorophenyl)piperidin-1-yl]phenyl}pyridine-3-sulfonamide]
- AC50 (Homo sapiens, HeLa, 2 h): ≤ 2000 nM

Compound: O=S(=O)(Nc1ccccc1N1CCC(c2ccc(Cl)cc2F)CC1)c1ccc(C2(C(F)(F)F)N=N2)cc1 [Compound A-732, N-{2-[4-(4-chloro-2-fluorophenyl)piperidin-1-yl]phenyl}-4-[3-(trifluoromethyl)-3H-diazirin-3-yl]benzene-1-sulfonamide]
- AC50 (Homo sapiens, HeLa, 2 h): 2010 to 8000 nM

Compound: CN(C)S(=N)(=O)c1ccc(S(=O)(=O)Nc2cccc(F)c2N2CCC(CN3CC4CCC(C3)O4)CC2)cc1 (stereo not drawn) [Compound A-853, N-(2-(4-((8-oxa-3-azabicyclo[3.2.1]octan-3-yl)methyl)piperidin-1-yl)-3-fluorophenyl)-4-(N,N-dimethylsulfamidimidoyl)benzenesulfonamide]
- AC50: ≤ 2000 nM

Compound: O=S(=O)(Nc1ccccc1N1CCN(c2ccc(Cl)cc2F)CC1)c1ccccn1 [Compound A-20, N-{2-[4-(4-chloro-2-fluorophenyl)piperazin-1-yl]phenyl}pyridine-2-sulfonamide]
- AC50 (Homo sapiens, HeLa, 2 h): ≤ 2000 nM

Compound: CN(C)S(=O)(=O)c1ccc(S(=O)(=O)Nc2ccccc2N2CCC(CN3CCOCC3)CC2)cc1 [Compound A-554, N1,N1-dimethyl-N4-(2-{4-[(morpholin-4-yl)methyl]piperidin-1-yl}phenyl)benzene-1,4-disulfonamide]
- AC50 (Homo sapiens, HeLa, 2 h): ≤ 2000 nM

Compound: CC(c1cc(Cl)cnc1N1CCC(CN2CCC(F)(F)CC2)CC1)S(=O)(=O)c1ccc(S(=O)(=O)N(C)C)cc1 (single isomer, unassigned) [Compound A-978, 4-((1-(5-chloro-2-(4-((4,4-difluoropiperidin-1-yl)methyl)piperidin-1-yl)pyridin-3-yl)ethyl)sulfonyl)-N,N-dimethylbenzenesulfonamide]
- AC50 (Homo sapiens, HeLa, 2 h): ≤ 2000 nM

Compound: C[C@H]1COC[C@H](C)N1CC1CCN(c2c(F)cccc2NS(=O)(=O)c2ccc(S(=N)(=O)N(C)C)cc2)CC1 (stereo partly drawn) [Compound A-840, N-(2-(4-(((3S,5S)-3,5-dimethylmorpholino)methyl)piperidin-1-yl)-3-fluorophenyl)-4-(N,N-dimethylsulfamidimidoyl)benzenesulfonamide]
- AC50: ≤ 2000 nM

Compound: CC1(C)CC2(CCN(c3ccccc3NS(=O)(=O)c3ccc4c(c3)CCC4)CC2)CO1 [Compound A-713, N-(2-{3,3-dimethyl-2-oxa-8-azaspiro[4.5]decan-8-yl}phenyl)-2,3-dihydro-1H-indene-5-sulfonamide]
- AC50 (Homo sapiens, HeLa, 2 h): ≤ 2000 nM

Compound: CCC(C)c1ccc(S(=O)(=O)Nc2ccccc2N2CCN(C(=O)C(C)(C)C)CC2)cc1 (stereo not drawn) [Compound A-513, 4-(butan-2-yl)-N-{2-[4-(2,2-dimethylpropanoyl)piperazin-1-yl]phenyl}benzene-1-sulfonamide]
- AC50 (Homo sapiens, HeLa, 2 h): 2010 to 8000 nM

Compound: O=S(=O)(Nc1ccccc1N1CCN(c2ccc(Cl)cc2F)CC1)C1CCOCC1 [Compound A-14, N-{2-[4-(4-chloro-2-fluorophenyl)piperazin-1-yl]phenyl}oxane-4-sulfonamide]
- AC50 (Homo sapiens, HeLa, 2 h): 2010 to 8000 nM

Compound: CN(C)S(=O)(=O)c1ccc(S(=O)(=O)Nc2ccccc2N2CCC(O)(c3ccc(Cl)cc3F)CC2)cc1 [Compound A-115, N4-{2-[4-(4-chloro-2-fluorophenyl)-4-hydroxypiperidin-1-yl]phenyl}-N1,N1-dimethylbenzene-1,4-disulfonamide]
- AC50 (Homo sapiens, HeLa, 2 h): ≤ 2000 nM

Compound: C[C@@H]1CN(CC2CCN(c3c(F)cccc3NS(=O)(=O)c3ccc(S(=N)(=O)N(C)C)cc3)CC2)C[C@H](C)O1 (stereo partly drawn) [Compound A-769, N-(2-(4-(((2S,6R)-2,6-dimethylmorpholino)methyl)piperidin-1-yl)-3-fluorophenyl)-4-(N,N-dimethylsulfamimidoyl)benzene-sulfonamide]
- AC50 (Homo sapiens, HeLa, 2 h): ≤ 2000 nM

Compound: CN(C)S(=O)(=O)c1ccc(S(=O)(=O)Nc2nnc(C3CCN(c4ccc(Cl)cc4F)CC3)s2)cc1 [Compound A-64, N1-(5-(1-(4-chloro-2-fluorophenyl)piperidin-4-yl)-1,3,4-thiadiazol-2-yl)-N4,N4-dimethylbenzene-1,4-disulfonamide]
- AC50 (Homo sapiens, HeLa, 2 h): ≥ 10000 nM

Compound: CCN1CCN(c2c(Cl)cccc2NS(=O)(=O)c2ccc3c(c2)CCC3)C(=O)C1 [Compound A-315, N-[3-chloro-2-(4-ethyl-2-oxopiperazin-1-yl)phenyl]-2,3-dihydro-1H-indene-5-sulfonamide]
- AC50 (Homo sapiens, HeLa, 2 h): ≥ 10000 nM

Compound: CC(c1cccc(F)c1N1CCC(COC(C)(C)C)CC1)S(=O)(=O)c1ccc(S(=N)(=O)N(C)C)cc1 (single isomer, unassigned) [Compound A-946, 4-((1-(2-(4-(tert-butoxymethyl)piperidin-1-yl)-3-fluorophenyl)ethyl)sulfonyl)-N,N-dimethylbenzenesulfonimidamide]
- AC50: ≤ 2000 nM

Compound: CN(C)S(=O)(=O)c1ccc(S(=O)(=O)Nc2ccccc2N2CCC(C3CCOCC3)CC2)cc1 [Compound A-548, N1,N1-dimethyl-N4-{2-[4-(oxan-4-yl)piperidin-1-yl]phenyl}benzene-1,4-disulfonamide]
- AC50 (Homo sapiens, HeLa, 2 h): ≤ 2000 nM

Compound: C[C@@H]1CN(CC2CCN(c3c(F)cccc3[C@@H](C)S(=O)(=O)c3ccc(S(=N)(=O)N(C)C)cc3)CC2)C[C@H](C)O1 (single isomer, unassigned) [Compound A-902]
- AC50 (Homo sapiens, HeLa, 2 h): ≥ 10000 nM

Compound: Cc1ccc([S+]([O-])Cc2ccccc2N2CCC(c3ccc(Cl)cc3F)CC2)cc1 (stereo not drawn) [Compound A-145, 4-(4-chloro-2-fluorophenyl)-1-(2-((p-tolylsulfinyl)methyl)phenyl)piperidine]
- AC50 (Homo sapiens, HeLa, 2 h): ≥ 10000 nM

Compound: CN(C)S(=O)(=O)c1ccc(S(=O)(=O)Nc2ccccc2N2CCCC23CCCOC3)cc1 (stereo not drawn) [Compound A-499, N1,N1-dimethyl-N4-(2-{7-oxa-1-azaspiro[4.5]decan-1-yl}phenyl)benzene-1,4-disulfonamide]
- AC50 (Homo sapiens, HeLa, 2 h): ≤ 2000 nM

Compound: CN(C)S(=O)(=O)c1ccc(S(=O)(=O)Nc2ccccc2N2CCC(C(C)(F)F)CC2)cc1 [Compound A-506, N4-{2-[4-(1,1-difluoroethyl)piperidin-1-yl]phenyl}-N1,N1-dimethylbenzene-1,4-disulfonamide]
- AC50 (Homo sapiens, HeLa, 2 h): ≤ 2000 nM

Compound: C[C@@H]1CN(CC2CCCN(c3c(F)cccc3NS(=O)(=O)c3ccc(S(=O)(=O)N(C)C)cc3)CC2)C[C@H](C)O1 (stereo partly drawn) [Compound A-918, N4-[2-(4-{[(2R,6S)-2,6-dimethylmorpholin-4-yl]methyl}azepan-1-yl)-3-fluorophenyl]-N1,N1-dimethylbenzene-1,4-disulfonamide]
- AC50 (Homo sapiens, HeLa, 2 h): ≤ 2000 nM

Compound: CC(c1cccc(F)c1N1CCCCC1)S(=O)(=O)c1ccc(S2(=O)=NCCC2)cc1 (single isomer, unassigned) [Compound A-992, 1-(4-((1-(3-fluoro-2-(piperidin-1-yl)phenyl)ethyl)sulfonyl)phenyl)-4,5-dihydro-3H-isothiazole 1-oxide]
- AC50: ≥ 10000 nM

Compound: CC1(C)CC2(CCN(c3ccccc3NS(=O)(=O)Cc3ccccc3)CC2)CO1 [Compound A-570, N-(2-{3,3-dimethyl-2-oxa-8-azaspiro[4.5]decan-8-yl}phenyl)-1-phenylmethanesulfonamide]
- AC50 (Homo sapiens, HeLa, 2 h): ≤ 2000 nM
